Molecules are shown by their SMILES. Values after ≈ are worked out from the molar mass of the structure shown.

One may read the MIC as the lowest concentration that inhibits growth of the organism.

One experiment concerns E. coli Ec13. Put plainly: FaAST (FDAA metabolic labeling). It counts as cell-based, Escherichia coli. The settings on record: unit assumed. The essentials: (§1)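 Bacteria at OD600=0.05 in CAMHB mixed with antibiotic dilutions plus Cy5-DAA probe at 0.15 mM final, then incubated 2 h in the dark. Cell-wall labeling fluorescence measured by flow cytometry after PBS dilution.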
The test system of experiment [1] is Acinetobacter baumannii ABA16. In words: VITEK drug sensitivity test. It counts as cell-based. The settings on record: unit assumed.
In experiment [2] the test system is A. baumannii Ab19. In words: FaAST (FDAA metabolic labeling). It counts as cell-based, Acinetobacter baumannii. The settings on record: unit assumed. A digest of the protocol: (§2)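 Bacteria diluted to OD600=0.05 in CAMHB were exposed to an antibiotic concentration series with Cy5-DAA probe […] for 2 h in the dark. Per-sample fluorescence was read by flow cytometry after PBS dilution. MIC was taken from the antibiotic concentration–fluorescence curve.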

For a further experiment, the system named is A. baumannii Ab16. Put plainly: FaAST (FDAA metabolic labeling). It counts as cell-based, Acinetobacter baumannii. The settings on record: unit assumed. The essentials:
as §1

The subject of experiment [3] is P. aeruginosa Pa2. Put plainly: FaAST (FDAA metabolic labeling). It counts as cell-based, Pseudomonas aeruginosa. The note with it: unit assumed. The protocol: (§3) The specific experimental steps are as follows: • 1. Take the colony to be tested that has been cultured overnight on the plate and fully mix it in normal saline to make a uniform bacterial solution. Dilute it into CAMHB medium to make a bacterial solution with OD600=0.05. • 2. Add 45 μl antibiotic solutions to be tested of different concentrations to 96-well plates (see Table 3 for antibiotic concentration gradient settings). • 3. Add 50 μl of bacterial solution prepared in Step 1 to the 96-well plate and mix well. • 4.5 μl of 10 mM Cy5-DAA probe was added to each well (final concentration was 0.15 mM, and its structure was shown in FIG. 1). After mixing, the probe was incubated for 2 hours in the dark. • 5. After dilution with 200 μl PBS solution, the fluorescence intensity of each sample was detected by flow cytometry. The flow detection results are shown in the attached FIG. 4-5, showing the curve of antibiotic concentration gradient and fluorescence intensity, and the MIC (minimum inhibitory concentration) is obtained by referring to this curve.
(§4) Antibiotic resistant strains are shown in bold in the table below.

The next experiment concerns P. aeruginosa Pa3. Put plainly: FaAST (FDAA metabolic labeling). The settings on record: unit assumed. It counts as cell-based, Pseudomonas aeruginosa. The protocol: as §3, §4
The test system of the next experiment is Pa ATCC 27853. In words: FaAST (FDAA metabolic labeling). It counts as cell-based, Pseudomonas aeruginosa. The settings on record: unit assumed. The method, then: as §3, §4
For a further experiment, the system named is E. coli Ec11. In words: FaAST (FDAA metabolic labeling). The note with it: unit assumed. It counts as cell-based, Escherichia coli. The essentials: as §2
The next experiment deals with Ec ATCC 25922. Put plainly: FaAST (FDAA metabolic labeling). It counts as cell-based, Escherichia coli. The note with it: unit assumed. The essentials: as §2
Experiment [4] has as its system bacteria contained in alveolar lavage fluid. Put plainly: FDAA metabolic labeling susceptibility test of alveolar lavage fluid (Cy5-DAA probe). It counts as cell-based. The note with it: alveolar lavage fluid of patients with hospital acquired pneumonia, 2 hours. The method, then:
With reference to the flow chart of the rapid detection method of antimicrobial susceptibility test based on FDAA metabolic markers shown in FIG. 3, FDAA is used for the detection of antimicrobial susceptibility test of alveolar lavage fluid. The specific experimental steps are as follows: • 1. Mix bronchoalveolar lavage fluid (BALF, 10 ml) of patients with hospital acquired pneumonia with cation regulated broth medium (CAMHB, 10 ml) of twice the concentration to prepare the bacterial fluid to be tested. • 2. Add 45 μl antibiotic solutions of different concentrations to the 96-well plate separately (see Table 1 for antibiotic concentration gradient settings). • 3. Add 50 μl of the bacterial solution prepared in step 1 to the 96-well plate and mix well. • 4. Add 5 μl of 10 mM Cy5-DAA probe (final concentration 0.15 mM, see FIG. 1 for its structure) into each well, mix well, and then cultivate in dark for 2 hours. • 5. Add 200 μl PBS solution for dilution, and then use flow cytometry to detect the fluorescence intensity of each sample.

A further experiment relates to E. faecalis ATCC29212. Put plainly: BMD susceptibility test. It counts as cell-based, Enterococcus faecalis. The note with it: unit assumed.
In experiment [5] the test system is E.coli 1113. Put plainly: Vitek 2 drug sensitivity test. As to Sensibility: key: S: Drug sensitive; R: Drug resistance. It counts as cell-based, Escherichia coli.
For the next experiment, the system named is S. aureus ATCC29213. Put plainly: BMD susceptibility test. It counts as cell-based, Staphylococcus aureus. The settings on record: unit assumed.
Experiment [6] relates to Enterococcus faecium EFM26. In words: VITEK drug sensitivity test. It counts as cell-based. The settings on record: unit assumed.
For experiment [7], the system named is A. baumannii Ab19. In words: BMD susceptibility test. The settings on record: unit assumed. It counts as cell-based, Acinetobacter baumannii.
The next experiment deals with E.coli 1146. Put plainly: FDAA metabolic labeling susceptibility test (Cy5-DAA probe, flow cytometry). It counts as cell-based, Escherichia coli. The settings on record: Escherichia coli; E.coli 1146; Cy5-DAA probe, 2 hours; read-out: MIC, FDAA. On the technique in general: In flow cytometry, cells or beads pass a laser one at a time.
Experiment [8] relates to E.coli 1113. The description is as above. It counts as cell-based, Escherichia coli. The settings on record: Escherichia coli; E.coli 1113; Cy5-DAA probe, 2 hours; read-out: MIC, FDAA.
In experiment [9] the test system is P. aeruginosa Pa2. Put plainly: BMD susceptibility test. It counts as cell-based, Pseudomonas aeruginosa. The note with it: unit assumed.
The test system of the next experiment is K. pneumoniae Kp6. Put plainly: BMD susceptibility test. It counts as cell-based, Klebsiella pneumoniae. The settings on record: unit assumed.

With `C[C@H]1COc2c(N3CCN(C)CC3)c(F)cc3c(=O)c(C(=O)O)cn1c23` [Levofloxacin, levofloxacin], the FaAST (MIC) in the experiment with E. coli Ec13 was 4 µg/mL; with A. baumannii Ab19 [2] it was 0.5 µg/mL; in the experiment on A. baumannii Ab16, 32 µg/mL; in the experiment on P. aeruginosa Pa2 [3] it was 0.5 µg/mL; with P. aeruginosa Pa3 it was 0.5 µg/mL; in the experiment on Pa ATCC 27853, 0.5 µg/mL. The FaAST (MIC) is 0.5 µg/mL with E. coli Ec11 and no more than 0.25 µg/mL in the experiment on Ec ATCC 25922. Also, the MIC, VITEK in experiment [1] is 16 µg/mL (≈ 44.3 µM); in experiment [6] it was no less than 256 µg/mL. For the same compound, the “MIC, FDAA” value in [4] is no less than 32 µg/mL. The BMD (MIC) in the experiment on E. faecalis ATCC29212 is 1 µg/mL; in the experiment on S. aureus ATCC29213 it was no more than 0.25 µg/mL; with A. baumannii Ab19 [7], no more than 0.25 µg/mL; with P. aeruginosa Pa2 [9] it was 0.5 µg/mL; in the experiment on K. pneumoniae Kp6, no more than 0.25 µg/mL. Moreover, in the experiment with E.coli 1113 [5], the MIC, Vitek 2 was greater than 8 µg/mL. In addition, in the experiment on E.coli 1113 [5], the Sensibility result was “R”. Moreover, the MIC in the experiment on E.coli 1146 and in the experiment on E.coli 1113 [8] was no less than 16 µg/mL throughout.
